Assay results from EP1077967B1, “BIPHENYL OXO-ACETIC ACIDS USEFUL IN THE TREATMENT OF INSULIN RESISTANCE AND HYPERGLYCEMIA” (Wyeth, priority 1998, dated 1999).
Where a name gives a salt, the structure may show the parent alone. Read-outs that look alike come from different tables or passages of the source.

Assays:
diabetic (ob/ob) mice = test: Blood glucose lowering in diabetic (ob/ob) mice; assay type: in vivo; settings: Mus musculus, po, cells marked a = no significant activity (p<0.05) at this dose
[1] = test system: rat hepatic microsomal PTPases; test: Inhibition of tri-phosphorylated insulin receptor dodecaphosphopeptide dephosphorylation by rat hepatic PTPases (malachite green); assay type: biochemical; settings: rat liver microsomal fraction; for % Change from Control: PTPase activity, compound at 50 µM; for IC50: % Change from Control
Human recombinant PTP1B = target: T1, Human recombinant PTP1B (Homo sapiens, UniProt P18031); test: Inhibition of tri-phosphorylated insulin receptor dodecaphosphopeptide dephosphorylation by hPTP1B (malachite green); assay type: biochemical; settings: for IC50: recombinant PTP1B, dodecaphosphopeptide substrate; for change of PTP1B activity (percent of phosphatase control) / inhibition at 2.5 µM: compound at 2.5 uM; for inhibition at 2.5 µM: read-out: change of PTP1B activity (percent of phosphatase control)
T1 construct: made in house
T1 sequence (P18031 1-435): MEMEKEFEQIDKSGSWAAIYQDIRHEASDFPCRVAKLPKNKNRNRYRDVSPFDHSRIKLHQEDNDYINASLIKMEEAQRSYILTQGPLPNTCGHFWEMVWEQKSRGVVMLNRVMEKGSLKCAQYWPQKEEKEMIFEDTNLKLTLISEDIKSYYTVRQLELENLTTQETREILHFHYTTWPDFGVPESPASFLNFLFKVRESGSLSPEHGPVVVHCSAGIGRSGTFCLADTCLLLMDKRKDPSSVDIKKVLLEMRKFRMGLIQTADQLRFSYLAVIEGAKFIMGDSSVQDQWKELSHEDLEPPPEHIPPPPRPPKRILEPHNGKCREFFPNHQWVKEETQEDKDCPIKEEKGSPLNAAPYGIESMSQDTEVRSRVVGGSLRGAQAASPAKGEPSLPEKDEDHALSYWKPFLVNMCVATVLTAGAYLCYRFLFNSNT

[2] = read-out: % Change Insulin from Vehicle
[3] = plasma glucose, read-out: % Change Glucose from Vehicle

% Change from Control [1] | IC50 (Human recombinant PTP1B) | IC50 [1] | Compound | also measured
-53% | 322 nM | – | O=C(O)[C@H](Cc1ccccc1)Oc1ccc(-c2ccc(-c3c(Cc4ccccc4)oc4ccccc34)cc2)cc1 [Example 1, (2S)-2-[4'-(2-Benzyl-benzofuran-3-yl)-biphenyl-4-yloxy]-3-phenyl-propionic acid] | change in vivo at 100 mg/kg (diabetic (ob/ob) mice; [2]): 17%; change in vivo at 100 mg/kg (diabetic (ob/ob) mice; [3]): -40.3%
– | 25 nM | 28400 nM | COc1ccc(-c2cc(-c3ccc(-c4c(Cc5ccccc5)sc5ccccc45)cc3)cc(-c3ccc(OC)cc3)c2OCC(=O)O)cc1 [Example 2] | change in vivo at 25 mg/kg (diabetic (ob/ob) mice; [2]): 11.2%; change in vivo at 25 mg/kg (diabetic (ob/ob) mice; [3]): -25.5%
– | 29 nM | 29900 nM | COc1ccc(-c2cc(-c3ccc(-c4c(Cc5ccccc5)sc5ccccc45)cc3)cc(Br)c2OCC(=O)O)cc1 [Example 3] | change in vivo at 25 mg/kg (diabetic (ob/ob) mice; [2]): 23.5%; change in vivo at 25 mg/kg (diabetic (ob/ob) mice; [3]): -29.9%
-71% | – | – | O=C(O)COc1ccc(-c2ccc(-c3c(Br)oc4ccccc34)cc2)cc1 [Example 6, [4'-(2-Bromo-benzofuran-3-yl)-biphenyl-4-yloxy]-acetic acid] | inhibition at 2.5 µM (Human recombinant PTP1B): 15%
-73% | – | – | O=C(O)C(Cc1ccccc1)Oc1ccc(-c2ccc(-c3c(Br)oc4ccccc34)cc2)cc1 (stereo not drawn) [Example 7, 2-[4'-(2-Bromo-benzofuran-3-yl)-biphenyl-4-yloxy]-3-phenyl-propionic acid] | inhibition at 2.5 µM (Human recombinant PTP1B): 58%
-28% | 740 nM | – | CCCCc1oc2ccccc2c1-c1ccc(-c2ccc(O)cc2)cc1 [Example 8, 4'-(2-Butyl-benzofuran-3-yl)-biphenyl-4-ol] | –
-75% | 2190 nM | – | CCCCc1oc2ccccc2c1-c1ccc(-c2ccc(OCC(=O)O)cc2)cc1 [Example 9, [4'-(2-Butyl-benzofuran-3-yl)-biphenyl-4-yloxy]-acetic acid] | –
-50% | – | – | O=C(O)C(Cc1ccccc1)Oc1ccc(-c2ccc(-c3c(Cc4ccccc4)sc4ccccc34)cc2)cc1 (stereo not drawn) [Example 13, 2-[4'-(2-Benzyl-benzo[b]thiophen-3-yl)-biphenyl-4-yloxy]-3-phenyl-propionic acid] | change in vivo at 100 mg/kg (diabetic (ob/ob) mice; [2]): 5%; change in vivo at 100 mg/kg (diabetic (ob/ob) mice; [3]): -36.7%
-55% | – | – | O=C(c1ccccc1)c1oc2ccccc2c1-c1ccc(-c2ccc(OC(Cc3ccccc3)C(=O)O)cc2)cc1 (stereo not drawn) [Example 14] | change in vivo at 100 mg/kg (diabetic (ob/ob) mice; [3]): -39%
-53% | 397 nM | – | O=C(O)[C@H](Cc1ccccc1)Oc1ccc(-c2ccc(-c3c(Cc4ccccc4)oc4ccccc34)cc2)cc1 [Example 16, (2S)-2-[4'-(2-Benzyl-benzofuran-3-yl)-biphenyl-4-yloxy]-3-phenyl-propionic acid tromethamine salt] | –
– | 401 nM | 24200 nM | O=C(O)[C@H](Oc1ccc(-c2ccc(-c3c(Cc4ccccc4)oc4ccccc34)cc2)cc1)c1ccccc1 [Example 18, (2R)-2-[4'-(2-Benzyl-benzofuran-3-yl)-biphenyl-4-yloxy]-phenyl-acetic acid] | –
– | – | 41600 nM | COc1ccc(Cc2sc3ccccc3c2-c2ccc(-c3ccc(O[C@H](Cc4ccccc4)C(=O)O)cc3)cc2)cc1 [Example 20] | –
– | 118 nM | 35500 nM | CCCCc1sc2ccccc2c1-c1ccc(-c2ccc(OC(C(=O)O)c3ccccc3)cc2)cc1 (stereo not drawn) [Example 21, [4'-(2-Butyl-benzo[b]thiophene-3-yl)-biphenyl-4-yloxy]-phenyl-acetic acid] | –
-55% | 118 nM | – | O=C(O)[C@@H](Cc1ccccc1)Oc1ccc(-c2ccc(-c3c(C(O)c4ccccc4)oc4ccccc34)cc2)cc1 (stereo partly drawn) [Example 22, (2R)-2-{4'-[2-(Hydroxy-phenyl-methyl)-benzofuran-3-yl)-biphenyl-4-yloxy]-3-phenyl-propionic acid] | –
– | 293 nM | – | CC(Cc1ccccc1)(Oc1ccc(-c2ccc(-c3c(Cc4ccccc4)oc4ccccc34)cc2)cc1)C(=O)O (stereo not drawn) [Example 24, 2-[4'-(2-Benzyl-benzofuran-3-yl)-biphenyl-4-yloxy]-2-methyl-3-phenyl-propionic acid] | change in vivo at 25 mg/kg (diabetic (ob/ob) mice; [3]): -30.5%
– | 213 nM | 17900 nM | COc1ccc(Cc2sc3ccccc3c2-c2ccc(-c3ccc(O[C@H](Cc4ccccc4)C(=O)O)cc3)cc2)cc1OC [Example 25, (2R)-2-{4'-[2-(3,4-Dimethoxy-benzyl)-benzo[b]thiophen-3-yl]-biphenyl-4-yloxy}-3-phenyl-propionic acid] | –
– | 85 nM | 20000 nM | COc1ccc(Cc2sc3ccccc3c2-c2ccc(-c3ccc(O[C@H](Cc4ccccc4)C(=O)O)cc3)cc2)c(OC)c1 [Example 26, (2R)-2-{4'-[2-(2,4-Dimethoxy-benzyl)-benzo[b]thiophen-3-yl]-biphenyl-4-yloxy}-3-phenyl-propionic acid] | –
-19% | 970 nM | – | O=C(O)[C@@H](Cc1ccccc1)Oc1ccc(-c2ccc(-c3ccsc3Cc3ccccc3)cc2)cc1 [Example 29, (2R)-2-[4'-(2-Benzyl-thiophene-3-yl)-biphenyl-4-yloxy]-3-phenyl-propionic acid] | –
– | 58 nM | 17900 nM | O=C(O)[C@@H](Cc1ccccc1)Oc1ccc(-c2ccc(-c3c(Cc4ccccc4)sc4ccccc34)cc2)cc1Br [Example 36, (2R)-2-[4'-(2-Benzyl-benzo[b]thiophene-3-yl)-3-bromo-biphenyl-4-yloxy]-3-phenyl-propionic acid] | –
– | 25 nM | 36800 nM | O=C(O)[C@@H](Cc1ccccc1)Oc1c(Br)cc(-c2ccc(-c3c(Cc4ccccc4)sc4ccccc34)cc2)cc1Br [Example 37, (2R)-2-[4'-(2-Benzyl-benzo[b]thiophene-3-yl)-3,5-dibromo-biphenyl-4-yloxy]-3-phenyl-propionic acid] | –
– | 53 nM | 19300 nM | COc1ccc(-c2cc(-c3ccc(-c4c(Cc5ccccc5)sc5ccccc45)cc3)ccc2O[C@H](Cc2ccccc2)C(=O)O)cc1 [Example 38, (2R)-2-[4-(2-Benzyl-benzo[b]thiophene-3-yl)-4"-methoxy-[1,1';3',1"]terphenyl-4'-yloxy]-3-phenvl-propionic acid] | –
– | 178 nM | – | O=C(O)CCCOc1ccc(-c2ccc(-c3c(Cc4ccccc4)sc4ccccc34)cc2)cc1Br [Example 42] | change in vivo at 25 mg/kg (diabetic (ob/ob) mice; [2]): 9.9%; change in vivo at 25 mg/kg (diabetic (ob/ob) mice; [3]): -10.6%
– | 341 nM | – | O=C(O)[C@@H](CCN1C(=O)c2ccccc2C1=O)Oc1ccc(-c2ccc(-c3c(Cc4ccccc4)oc4ccccc34)cc2)cc1 [Example 48, (2R)-2-[4'-(2-benzyl-benzofuran-3-yl)-biphenyl-4-yloxy]-4-(1,3-dioxo-1,3-dihydro-isoindol-2-yl)-butyric acid] | change in vivo at 25 mg/kg (diabetic (ob/ob) mice; [2]): -30%; change in vivo at 25 mg/kg (diabetic (ob/ob) mice; [3]): 4.7%
– | 43 nM | – | COc1ccc(-c2cc(-c3ccc(-c4c(Cc5ccccc5)oc5ccccc45)cc3)ccc2O[C@@H](Cc2ccccc2)C(=O)O)cc1 [Example 55, (2S)-2-[4-(2-benzyl-benzofuran-3-yl)-4"-methoxy-[1,1';3',1'']terphenyl-4'-yloxy]-3-phenyl-propionic acid] | change in vivo at 25 mg/kg (diabetic (ob/ob) mice; [2]): 35.4%; change in vivo at 25 mg/kg (diabetic (ob/ob) mice; [3]): -13.6%
– | – | – | O=C(O)[C@H](Cc1ccccc1)Oc1ccc(-c2ccc(-c3nc4ccccc4n3Cc3ccccc3)cc2)cc1 [Example 70, (2S)-2-[4'-(1-Benzyl-1H-benzimidazol-2-yl)-biphenyl-4-yloxy]-3-phenyl-propionic acid] | inhibition at 2.5 µM (Human recombinant PTP1B): 41%
– | – | – | CC(=O)c1ccc(-c2ccc(-c3ccc(O[C@@H](Cc4ccccc4)C(=O)O)cc3)cc2)s1 [Example 71, (2S)-2-[4'-(5-acetyl-thiophen-2-yl)-biphenyl-4-yloxy]-3-phenyl-propionic acid sodium salt] | inhibition at 2.5 µM (Human recombinant PTP1B): 43%
– | 8700 nM | – | Ammonium molybdate tetrahydrate [reference compound] | –

Compound | % Change from Control [1] | IC50 (Human recombinant PTP1B) | IC50 [1] | also measured
O=C(O)COc1ccc(-c2ccc(-c3coc4ccccc34)cc2)cc1 [Example 4, (4'-Benzofuran-3-yl-biphenyl-4-yloxy)-acetic acid] | -11% | – | – | change of PTP1B activity (percent of phosphatase control) (Human recombinant PTP1B): -51 (2.5 uM)
O=C(O)C(Cc1ccccc1)Oc1ccc(-c2ccc(-c3coc4ccccc34)cc2)cc1 (stereo not drawn) [Example 5, 2-(4'-Benzofuran-3-yl-biphenyl-4-yloxy)-3-phenyl-propionic acid] | -70% | – | – | change of PTP1B activity (percent of phosphatase control) (Human recombinant PTP1B): -47 (2.5 uM)
CC1(C)Oc2ccc(Cc3sc4ccccc4c3-c3ccc(-c4ccc(O[C@H](Cc5ccccc5)C(=O)O)cc4)cc3)cc2O1 [Example 27, (2R) 2-{4'-[2-(2,2-Dimethyl-benzo[1,3]dioxol-5-ylmethyl)-benzo[b]thiophene-3-yl)-biphenyl-4-yloxy]-3-phenyl-propionic acid] | – | 77 nM | 24900 nM | –
